Values of other authors as cited in US12533416B2, “Krill oil for solubilizing poorly water-soluble dietary supplements and pharmaceutically active agents” (ID CARE UG (haftungsbeschränkt), priority 2018, dated 2026).

Details: Class 4 = low solubility

| BCS class (solubility / permeability) | Compound |
| --- | --- |
| BCS Class 4 | Nc1nc2c(ncn2COCCO)c(=O)[nH]1 [Aciclovir, aciclovir] |
| BCS Class 4 | CC[C@H]1OC(=O)[C@H](C)[C@@H](O[C@H]2C[C@@](C)(OC)[C@@H](O)[C@H](C)O2)[C@H](C)[C@@H](O[C@@H]2O[C@H](C)C[C@H](N(C)C)[C@H]2O)[C@](C)(O)C[C@@H](C)CN(C)[C@H](C)[C@@H](O)[C@]1(C)O [Azithromycin, azithromycin] |
